Converted amounts (≈) assume the structure as drawn. Where two headings read alike, the source gives them in different places.
Assays:
Experiment in all cases: In vitro antibacterial activity, agar plate dilution method (MIC)
Ps.cepacia 23 = assay type: cell-based, Pseudomonas cepacia; conditions: Burkholderia cepacia; Ps.cepacia 23; Mueller Hinton agar, inoculum 10⁶ CFU/ml, 37°C, 16 hours; read-out: Minimum Inhibitory Concentration (MIC: µg/ml)
Protocol: (§1) The in vitro antibacterial activities of the compounds of the present invention against various microorganisms, were measured by the following agar plate dilution method. One platinum loopfull of each test microorganism incubated overnight in Mueller Hinton broth, was inoculated to Mueller Hinton agar (inoculum size: l0⁶ CFU/ml). Such culture media containing various antibiotics in various concentrations were prepared. After incubation at 37°C for l6 hours, the minimum inhibitory concentrations (MIC: µg/ml) were measured. As comparative compounds, Cefotaxime, Ceftazidime and the compounds of Reference Examples l to 4 were employed.

Ps.maltophilia GN 12873 = assay type: cell-based, Pseudomonas maltophilia; conditions: Stenotrophomonas maltophilia, GN12873; Ps.maltophilia GN 12873 (β-Lactamase-producing strain); Mueller Hinton agar, inoculum 10⁶ CFU/ml, 37°C, 16 hours; read-out: Minimum Inhibitory Concentration (MIC: µg/ml)
Protocol: as §1

Ps.aeruginosa IFO3445 = assay type: cell-based; conditions: Pseudomonas aeruginosa; Ps.aeruginosa IFO3445; Mueller Hinton agar, inoculum 10⁶ CFU/ml, 37°C, 16 hours; read-out: Minimum Inhibitory Concentration (MIC: µg/ml)
Protocol: as §1

S.aureus JS1 = assay type: cell-based; conditions: Staphylococcus aureus; S.aureus JS1 (β-Lactamase-producing strain); Mueller Hinton agar, inoculum 10⁶ CFU/ml, 37°C, 16 hours; read-out: Minimum Inhibitory Concentration (MIC: µg/ml)
Protocol: as §1

E.cloacae Nek 39 = assay type: cell-based; conditions: Enterobacter cloacae, NEK39; E.cloacae Nek 39 (β-Lactamase-producing strain); Mueller Hinton agar, inoculum 10⁶ CFU/ml, 37°C, 16 hours; read-out: Minimum Inhibitory Concentration (MIC: µg/ml)
Protocol: as §1

M.morganii GN5407 = assay type: cell-based; conditions: Morganella morganii; M.morganii GN5407 (β-Lactamase-producing strain); Mueller Hinton agar, inoculum 10⁶ CFU/ml, 37°C, 16 hours; read-out: Minimum Inhibitory Concentration (MIC: µg/ml)
Protocol: as §1

M.luteus ATCC9341 = assay type: cell-based; conditions: Micrococcus luteus; M.luteus ATCC9341; Mueller Hinton agar, inoculum 10⁶ CFU/ml, 37°C, 16 hours; read-out: Minimum Inhibitory Concentration (MIC: µg/ml)
Protocol: as §1

A.calcoaceticus No. 4 = assay type: cell-based; conditions: Acinetobacter calcoaceticus; A.calcoaceticus No. 4; Mueller Hinton agar, inoculum 10⁶ CFU/ml, 37°C, 16 hours; read-out: Minimum Inhibitory Concentration (MIC: µg/ml)
Protocol: as §1

C.freundii GN346 = assay type: cell-based; conditions: Citrobacter freundii; C.freundii GN346 (β-Lactamase-producing strain); Mueller Hinton agar, inoculum 10⁶ CFU/ml, 37°C, 16 hours; read-out: Minimum Inhibitory Concentration (MIC: µg/ml)
Protocol: as §1

Ps.aeruginosa AK 109 = assay type: cell-based; conditions: Pseudomonas aeruginosa, AK109; Ps.aeruginosa AK 109; Mueller Hinton agar, inoculum 10⁶ CFU/ml, 37°C, 16 hours; read-out: Minimum Inhibitory Concentration (MIC: µg/ml)
Protocol: as §1

E.coli GN5482 = assay type: cell-based; conditions: Escherichia coli; E.coli GN5482 (β-Lactamase-producing strain); Mueller Hinton agar, inoculum 10⁶ CFU/ml, 37°C, 16 hours; read-out: Minimum Inhibitory Concentration (MIC: µg/ml)
Protocol: as §1

S.epidermidis IAM12012 = assay type: cell-based; conditions: Staphylococcus epidermidis; S.epidermidis IAM12012; Mueller Hinton agar, inoculum 10⁶ CFU/ml, 37°C, 16 hours; read-out: Minimum Inhibitory Concentration (MIC: µg/ml)
Protocol: as §1

C.freundii GN346/16 = assay type: cell-based; conditions: Citrobacter freundii; C.freundii GN346/16; Mueller Hinton agar, inoculum 10⁶ CFU/ml, 37°C, 16 hours; read-out: Minimum Inhibitory Concentration (MIC: µg/ml)
Protocol: as §1

S.aureus BB5703 = assay type: cell-based; conditions: Staphylococcus aureus; S.aureus BB5703; Mueller Hinton agar, inoculum 10⁶ CFU/ml, 37°C, 16 hours; read-out: Minimum Inhibitory Concentration (MIC: µg/ml)
Protocol: as §1

Ps.aeruginosa AKR17 = assay type: cell-based; conditions: Pseudomonas aeruginosa; Ps.aeruginosa AKR17; Mueller Hinton agar, inoculum 10⁶ CFU/ml, 37°C, 16 hours; read-out: Minimum Inhibitory Concentration (MIC: µg/ml)
Protocol: as §1

P.vulgaris HX-19 = assay type: cell-based; conditions: Proteus vulgaris, HX19; P.vulgaris HX-19; Mueller Hinton agar, inoculum 10⁶ CFU/ml, 37°C, 16 hours; read-out: Minimum Inhibitory Concentration (MIC: µg/ml)
Protocol: as §1

E.coli NIHJ JC2 = assay type: cell-based; conditions: Escherichia coli, NIHJJC2; E.coli NIHJ JC2; Mueller Hinton agar, inoculum 10⁶ CFU/ml, 37°C, 16 hours; read-out: Minimum Inhibitory Concentration (MIC: µg/ml)
Protocol: as §1

K.pneumoniae PCI-602 = assay type: cell-based; conditions: Klebsiella pneumoniae, PCI602; K.pneumoniae PCI-602; Mueller Hinton agar, inoculum 10⁶ CFU/ml, 37°C, 16 hours; read-out: Minimum Inhibitory Concentration (MIC: µg/ml)
Protocol: as §1

S.marcescens IAM 1184 = assay type: cell-based; conditions: Serratia marcescens, read-out: Minimum Inhibitory Concentration (MIC: µg/ml)
Protocol: as §1

E.cloacae 963 = assay type: cell-based; conditions: Enterobacter cloacae; E.cloacae 963; Mueller Hinton agar, inoculum 10⁶ CFU/ml, 37°C, 16 hours; read-out: Minimum Inhibitory Concentration (MIC: µg/ml)
Protocol: as §1

S.aureus 209P NIHJ-JC1 = assay type: cell-based; conditions: Staphylococcus aureus; S.aureus 209P NIHJ-JC1; Mueller Hinton agar, inoculum 10⁶ CFU/ml, 37°C, 16 hours; read-out: Minimum Inhibitory Concentration (MIC: µg/ml)
Protocol: as §1

E.coli CSH2 (RK1) = assay type: cell-based; conditions: Escherichia coli, 16 h, read-out: Minimum Inhibitory Concentration (MIC: µg/ml)
Protocol: as §1

K.oxytoca GN10650 = assay type: cell-based; conditions: Klebsiella oxytoca; K.oxytoca GN10650 (β-Lactamase-producing strain); Mueller Hinton agar, inoculum 10⁶ CFU/ml, 37°C, 16 hours; read-out: Minimum Inhibitory Concentration (MIC: µg/ml)
Protocol: as §1

E.coli CSH(RE45) = assay type: cell-based; conditions: Escherichia coli, 16 h, read-out: Minimum Inhibitory Concentration (MIC: µg/ml)
Protocol: as §1

P.vulgaris No. 33 = assay type: cell-based; conditions: Proteus vulgaris; P.vulgaris No. 33 (β-Lactamase-producing strain); Mueller Hinton agar, inoculum 10⁶ CFU/ml, 37°C, 16 hours; read-out: Minimum Inhibitory Concentration (MIC: µg/ml)
Protocol: as §1

S.marcescens No. 16-2 = assay type: cell-based; conditions: Serratia marcescens, NO.162; S.marcescens No. 16-2 (β-Lactamase-producing strain); Mueller Hinton agar, inoculum 10⁶ CFU/ml, 37°C, 16 hours; read-out: Minimum Inhibitory Concentration (MIC: µg/ml)
Protocol: as §1

K.pneumoniae No. 42 = assay type: cell-based; conditions: Klebsiella pneumoniae; K.pneumoniae No. 42 (β-Lactamase-producing strain); Mueller Hinton agar, inoculum 10⁶ CFU/ml, 37°C, 16 hours; read-out: Minimum Inhibitory Concentration (MIC: µg/ml)
Protocol: as §1

[1] = IAM1184, S.marcescens IAM 1184, Mueller Hinton agar, inoculum 10⁶ CFU/ml, 37°C, 16 hours

Structure (SMILES) | MIC (Ps.cepacia 23) [µg/mL] | MIC (Ps.maltophilia GN 12873) [µg/mL] | MIC (Ps.aeruginosa IFO3445) [µg/mL] | MIC (S.aureus JS1) [µg/mL] | MIC (E.cloacae Nek 39) [µg/mL] | MIC (M.morganii GN5407) [µg/mL] | MIC (M.luteus ATCC9341) [µg/mL] | MIC (A.calcoaceticus No. 4) [µg/mL] | MIC (C.freundii GN346) [µg/mL] | MIC (Ps.aeruginosa AK 109) [µg/mL] | MIC (E.coli GN5482) [µg/mL] | MIC (S.epidermidis IAM12012) [µg/mL] | MIC (C.freundii GN346/16) [µg/mL] | MIC (S.aureus BB5703) [µg/mL] | MIC (Ps.aeruginosa AKR17) [µg/mL] | MIC (P.vulgaris HX-19) [µg/mL] | MIC (E.coli NIHJ JC2) [µg/mL] | MIC (K.pneumoniae PCI-602) [µg/mL] | MIC (E.cloacae 963) [µg/mL] | MIC (S.aureus 209P NIHJ-JC1) [µg/mL] | also measured
CO/N=C(\C(=O)NC1C(=O)N2C(C(=O)[O-])=C(C[n+]3ccc4cc(O)c(O)cc4c3)CSC12)c1csc(N)n1 (stereo not drawn) [Ex. 1, 7-[2-(2-aminothiazol-4-yl)-2-methoxyiminoacetamido]-3-(6,7-dihydroxy-2-isoquinolinio)-methyl-3-cephem-4-carboxylate] | 0.78 (≈ 1.4 µM) | > 100 | 0.78 (≈ 1.4 µM) | 25 (≈ 44.9 µM) | 0.1 (≈ 0.18 µM) | 0.1 (≈ 0.18 µM) | 0.1 (≈ 0.18 µM) | 0.2 (≈ 0.359 µM) | 25 (≈ 44.9 µM) | 0.78 (≈ 1.4 µM) | 0.39 (≈ 0.701 µM) | 0.78 (≈ 1.4 µM) | 0.78 (≈ 1.4 µM) | 3.12 (≈ 5.61 µM) | 100 (≈ 180 µM) | < 0.006 | 0.05 (≈ 0.0898 µM) | < 0.006 | 0.025 (≈ 0.0449 µM) | 1.56 (≈ 2.8 µM) | MIC (S.marcescens IAM 1184; [1]): 0.0125 µg/mL (≈ 0.0225 µM); MIC (E.coli CSH2 (RK1)): < 0.006 µg/mL; MIC (K.oxytoca GN10650): 0.78 µg/mL (≈ 1.4 µM); MIC (E.coli CSH(RE45)): 0.78 µg/mL (≈ 1.4 µM); MIC (P.vulgaris No. 33): 0.1 µg/mL (≈ 0.18 µM); MIC (S.marcescens No. 16-2): 3.12 µg/mL (≈ 5.61 µM); MIC (K.pneumoniae No. 42): 0.025 µg/mL (≈ 0.0449 µM)
CC(C)ON=C(C(=O)NC1C(=O)N2C(C(=O)[O-])=C(C[n+]3ccc4cc(O)c(O)cc4c3)CS[C@H]12)c1csc(N)n1 (stereo partly drawn) [Ex. 2, 7-[2-(2-aminothiazol-4-yl)-2-isopropoxyiminoacetamido]-3-(6,7-dihydroxy-2-isoquinolinio)methyl-3-cephem-4-carboxylate] | 0.1 (≈ 0.171 µM) | 100 (≈ 171 µM) | 0.78 (≈ 1.33 µM) | 12.5 (≈ 21.4 µM) | 0.05 (≈ 0.0855 µM) | 0.05 (≈ 0.0855 µM) | 0.1 (≈ 0.171 µM) | 0.2 (≈ 0.342 µM) | 50 (≈ 85.5 µM) | 0.78 (≈ 1.33 µM) | 0.39 (≈ 0.667 µM) | 0.78 (≈ 1.33 µM) | 0.78 (≈ 1.33 µM) | 6.25 (≈ 10.7 µM) | 25 (≈ 42.8 µM) | < 0.006 | 0.1 (≈ 0.171 µM) | < 0.006 | 0.025 (≈ 0.0428 µM) | 1.56 (≈ 2.67 µM) | MIC (S.marcescens IAM 1184; [1]): 0.0125 µg/mL (≈ 0.0214 µM); MIC (E.coli CSH2 (RK1)): < 0.006 µg/mL; MIC (K.oxytoca GN10650): 0.39 µg/mL (≈ 0.667 µM); MIC (E.coli CSH(RE45)): 0.39 µg/mL (≈ 0.667 µM); MIC (P.vulgaris No. 33): 0.05 µg/mL (≈ 0.0855 µM); MIC (S.marcescens No. 16-2): 0.78 µg/mL (≈ 1.33 µM); MIC (K.pneumoniae No. 42): 0.025 µg/mL (≈ 0.0428 µM)
C=CCON=C(C(=O)NC1C(=O)N2C(C(=O)[O-])=C(C[n+]3ccc4cc(O)c(O)cc4c3)CS[C@H]12)c1csc(N)n1 (stereo partly drawn) [Ex. 3, 7-[2-allyloxyimino-2-(2-aminothiazol-4-yl)acetamido]-3-(6,7-dihydroxy-2-isoquinolinio)methyl-3-cephem-4-carboxylate] | < 0.006 | > 100 | 0.39 (≈ 0.669 µM) | 12.5 (≈ 21.5 µM) | 0.1 (≈ 0.172 µM) | 0.05 (≈ 0.0858 µM) | 0.2 (≈ 0.343 µM) | 0.2 (≈ 0.343 µM) | 50 (≈ 85.8 µM) | 0.78 (≈ 1.34 µM) | 0.39 (≈ 0.669 µM) | 0.39 (≈ 0.669 µM) | 0.39 (≈ 0.669 µM) | 6.25 (≈ 10.7 µM) | 100 (≈ 172 µM) | < 0.006 | 0.1 (≈ 0.172 µM) | < 0.006 | 0.05 (≈ 0.0858 µM) | 0.78 (≈ 1.34 µM) | MIC (S.marcescens IAM 1184; IAM1184, 16 h): 0.0125 µg/mL (≈ 0.0215 µM); MIC (E.coli CSH2 (RK1)): 0.0125 µg/mL (≈ 0.0215 µM); MIC (K.oxytoca GN10650): 3.12 µg/mL (≈ 5.36 µM); MIC (E.coli CSH(RE45)): 0.025 µg/mL (≈ 0.0429 µM); MIC (P.vulgaris No. 33): 0.1 µg/mL (≈ 0.172 µM); MIC (S.marcescens No. 16-2): 1.56 µg/mL (≈ 2.68 µM); MIC (K.pneumoniae No. 42): 0.1 µg/mL (≈ 0.172 µM)
